According to patent US5705687A, “Neurotropic drug and method for preparation of same” (priority 1993, dated 1998):
Several values for one entry are separate records, joined by “and”; a condition that tells them apart may be missing. Equal entries are not always repeated. Structures can show the parent of a compound that is named as a salt.

Legend:
[1] = Solubility and hygroscopicity; assay type: physicochemical; details: powder
[2] = tested on: mice; assay: Histotoxic hypoxia (sodium nitroprussiate), lifespan; assay type: in vivo; details: for Lifespan, % effect: Na-nitro-prussiate alone = 100
Experimental: (§1) The antihypoxic properties of the new compounds were tested in the models of hypoxic normobaric, hemic and histotoxic hypoxia. The hypoxic (hypercapnic) normobaric hypoxia was induced by placing the mice in hermetically sealed transparent boxes, subdivided into compartments, 80 cm^3 each. The animals were observed until all respiratory movements ceased. The hemic hypoxia was induced by the intraperitoneal administration of sodium nitrite in a dose of 400 mg/kg. The hystotoxic hypoxia was induced by the intraperitoneal administration of sodium nitroprussiate, in a dose of a 20 mg/kg dosage.

[3] = tested on: mice; assay: Soporific action of barbital sodium; details: for Duration of sleep, % effect / Lateral position, % effect: barbital sodium alone = 100; for increase of sleep duration over control group: barbital sodium
[4] = tested on: mice; assay: Soporific action of hexobarbital; details: for Duration of sleep, % effect / Lateral position, % effect: hexobarbital alone = 100
[5] = tested on: mice; assay: Hypoxic (hypercapnic) normobaric hypoxia, lifespan; assay type: in vivo; details: for Average lifespan: control 411 ± 11.9, P < 0.001; for Lifespan, % effect: control = 100
Experimental: as §1

[6] = tested on: mice; assay: Rotating rod: myorelaxation and movement coordination; assay type: in vivo, white crossbred mice; details: same dosage range (0.1 to 150 mg/kg), entire test period 3.5 hours
Experimental: (§2) The myorelaxing effect of the new compounds was tested by the method of the "rotating rod"(Dunham N. W., Miga T. S., A note on a simplex apparatus for detecting neurological deficit in rat and mice, J. Am. Pharm. Ass., 1957, vol. 46, No. 3, pp. 208-209), which allows one to record any abnormalities in coordination and balance, as well as ataxia. The mice in the laboratory tests were placed on a horizontal rod, 2 cm in diameter, rotating at a speed of 5 revolutions per minute. The object was to register the number of mice which were able to maintain equilibrium on the rod for two minutes. Any presence of a myorelaxing component was considered to be a side effect of the substance being studied.

[7] = tested on: mice; assay: Acute toxicity in mice (Litchfield-Wilcockson); assay type: in vivo, white crossbred mice; details: i.p., single dose
[8] = Acute toxicity in mice (Litchfield-Wilcockson); assay type: in vivo, white crossbred mice; details: mouse, in vivo
[9] = tested on: central nervous system; assay: Neuropharmacological screening, overall findings; assay type: in vivo, mice; details: of all the salts derived
Experimental: as §2

[10] = tested on: mice; assay: Spontaneous motor activity (SMA), 40-channel automatic motor meter; details: for Average SMA, M ± m: control 632.8 ± 35.2; for Relative change in activity (%): control = 100
[11] = tested on: mice; assay: Hemic hypoxia (sodium nitrite), lifespan; assay type: in vivo; details: for Lifespan, % effect: Na-nitrite alone = 100
Experimental: as §1

[12] = tested on: mice; assay: Orientation reflexes: test of ascent onto an inclined net; details: 0.1 to 150 mg/kg
[13] = 1 mg/kg i.p. + hexobarbital 100 mg/kg

CC(C)(CO)C(=O)C(=O)NCCCC(=O)O [KPA-Ca, calcium salt of ketopantoyl aminobutyrate]
hygroscopicity [1]: hygroscopic | Average lifespan ([2]; 10 mg/kg + Na-nitro-prussiate 20 mg/kg): 798 ± 38 s | Lifespan, % effect ([2]; 10 mg/kg): 104.3% | Average lifespan ([2]; 25 mg/kg + Na-nitro-prussiate 20 mg/kg): 855 ± 43.2 s | Lifespan, % effect ([2]; 25 mg/kg): 111.8% | increase in lifespan ([2]; 50 mg/kg): 21.6% | Average lifespan ([2]; 50 mg/kg + Na-nitro-prussiate 20 mg/kg, P < 0.05): 930 ± 55.1 s | Lifespan, % effect ([2]; 50 mg/kg): 121.6% | increase in lifespan ([2]; 100 mg/kg): 38.4% | Average lifespan ([2]; 100 mg/kg + Na-nitro-prussiate 20 mg/kg, P < 0.01): 1059 ± 64 s | Lifespan, % effect ([2]; 100 mg/kg): 138.4% | Duration of sleep, % effect ([3]; 1 mg/kg): 99.9% | Lateral position, % effect ([3]; 1 mg/kg): 69.6% | Duration of sleep, % effect ([3]; 10 mg/kg): 122.7% | Lateral position, % effect ([3]; 10 mg/kg): 61.4% | increase of sleep duration over control group ([3]; 25 mg/kg): 126.5% | Duration of sleep, % effect ([3]; 25 mg/kg): 226.5% | Lateral position, % effect ([3]; 25 mg/kg): 67.3% | increase of sleep duration over control group ([3]; 50 mg/kg): 95.1% and 95% | Duration of sleep, % effect ([3]; 50 mg/kg): 195.1% | Lateral position, % effect ([3]; 50 mg/kg): 68.7% | Duration of sleep, % effect ([3]; 100 mg/kg): 229.3% | Lateral position, % effect ([3]; 100 mg/kg): 66.7% | increase of sleep duration over control group [3]: 129.3% | Duration of sleep [4, 13]: 44.6 ± 5.2 min | Lateral position [4, 13]: 2.5 ± 0.17 min | Duration of sleep, % effect ([4]; 1 mg/kg): 96.3% | Lateral position, % effect ([4]; 1 mg/kg): 104.2% | Lateral position ([4]; 10 mg/kg i.p. + hexobarbital 100 mg/kg): 2.4 ± 0.16 min | Duration of sleep ([4]; 10 mg/kg i.p. + hexobarbital 100 mg/kg, P < 0.01): 67.2 ± 4.3 min | Duration of sleep, % effect ([4]; 10 mg/kg): 145.1% | Lateral position, % effect ([4]; 10 mg/kg): 100% | Lateral position ([4]; 25 mg/kg i.p. + hexobarbital 100 mg/kg): 2.5 ± 0.2 min | Duration of sleep ([4]; 25 mg/kg i.p. + hexobarbital 100 mg/kg, P < 0.001): 60.6 ± 1.9 min | Duration of sleep, % effect ([4]; 25 mg/kg): 130.9% | Lateral position, % effect ([4]; 25 mg/kg): 104.2% | Lateral position ([4]; 50 mg/kg i.p. + hexobarbital 100 mg/kg): 2.3 ± 0.15 min | Duration of sleep ([4]; 50 mg/kg i.p. + hexobarbital 100 mg/kg, P < 0.001): 70.7 ± 3.1 min | increase of sleep duration ([4]; 50 mg/kg, hexobarbital): 52.7% | Duration of sleep, % effect ([4]; 50 mg/kg): 152.7% | Lateral position, % effect ([4]; 50 mg/kg): 95.8% | Lateral position ([4]; 100 mg/kg i.p. + hexobarbital 100 mg/kg): 2.4 ± 0.22 min | Duration of sleep ([4]; 100 mg/kg i.p. + hexobarbital 100 mg/kg, P < 0.001): 93.7 ± 4.3 min | increase of sleep duration over control group (maximum effect) ([4]; 100 mg/kg, hexobarbital): 102.4% | Duration of sleep, % effect ([4]; 100 mg/kg): 202.4% | Lateral position, % effect ([4]; 100 mg/kg): 100% | Lateral position ([4]; 150 mg/kg i.p. + hexobarbital 100 mg/kg): 2.5 ± 0.34 min | Duration of sleep ([4]; 150 mg/kg i.p. + hexobarbital 100 mg/kg, P < 0.001): 86.4 ± 4 min | Duration of sleep, % effect ([4]; 150 mg/kg): 186.6% | Lateral position, % effect ([4]; 150 mg/kg): 104.2% | change in effect on raising the dose ([4]; above 100 mg/kg): not noticeable change in the effect | effect on the lateral position ([4]; hexobarbital): no effect on the lateral position | Average lifespan ([5]; 10 mg/kg): 558 ± 21.5 s | Lifespan, % effect ([5]; 10 mg/kg): 135.8% | Average lifespan ([5]; 25 mg/kg): 570 ± 17.3 s | Lifespan, % effect ([5]; 25 mg/kg): 138.7% | Average lifespan ([5]; 50 mg/kg): 588 ± 22.4 s | Lifespan, % effect ([5]; 50 mg/kg): 143.1% | Average lifespan ([5]; 100 mg/kg): 600 ± 30.7 s | Lifespan, % effect ([5]; 100 mg/kg): 146% | extension of lifespan compared to control group ([5]; 10 to 100 mg/kg): 35.8-46% | ataxia, myorelaxation, loss of movement coordination [6]: did not induce any ataxia, myorelaxation or loss of movement coordination | LD10 (acute toxicity) [7]: 2234.3 ± 60.7 mg/kg | LD50 ([8]; intravenous, read-out: DL50 (the source's name)): 1040 ± 13.5 mg/kg | MTD ([8]; ip, read-out: maximum tolerance level): 1500 mg/kg | properties compared with the other salts [9]: best properties | decrease in number of runs in the motor meter (the same result) ([10]; 10 mg/kg): 30% | dose for 30% decrease in runs, compared with pantogam dose ([10]; 10 mg/kg KPA-Ca vs 500 mg/kg pantogam): 50 times less | Average SMA, M ± m ([10]; 10 mg/kg i.p., 60 min before, number of runs): 482.8 ± 101.8 | Relative change in activity (%) ([10]; 10 mg/kg i.p.): 76.3% | Average SMA, M ± m ([10]; 25 mg/kg i.p., P < 0.01): 369.1 ± 68.7 | Relative change in activity (%) ([10]; 25 mg/kg i.p.): 58.3% | Average SMA, M ± m ([10]; 50 mg/kg i.p., P < 0.01): 338.9 ± 74.5 | Relative change in activity (%) ([10]; 50 mg/kg i.p.): 53.6% | Average SMA, M ± m ([10]; 100 mg/kg i.p., P < 0.01): 270.4 ± 75.3 | Relative change in activity (%) ([10]; 100 mg/kg i.p.): 42.7% | decrease in motor activity (the same effect) ([10]; 150 mg/kg): 70% | Average SMA, M ± m ([10]; 150 mg/kg i.p., P < 0.001): 190.6 ± 28.2 | Relative change in activity (%) ([10]; 150 mg/kg i.p.): 30.1% | dose of greatest effect on motor activity ([10]; SMA test, mice): 150 mg/kg | effect on motor activity (in words) ([10]; SMA test, mice): decreases the motor activity | Average lifespan ([11]; 10 mg/kg + Na-nitrite 400 mg/kg): 777 ± 30.1 s | Lifespan, % effect ([11]; 10 mg/kg): 98.3% | Average lifespan ([11]; 25 mg/kg + Na-nitrite 400 mg/kg): 780 ± 30.3 s | Lifespan, % effect ([11]; 25 mg/kg): 98.7% | Average lifespan ([11]; 50 mg/kg + Na-nitrite 400 mg/kg): 819 ± 41 s | Lifespan, % effect ([11]; 50 mg/kg): 103.6% | increase in effect (lifespan) ([11]; 100 mg/kg): 19.9% | Average lifespan ([11]; 100 mg/kg + Na-nitrite 400 mg/kg, P < 0.01): 948 ± 40.3 s | Lifespan, % effect ([11]; 100 mg/kg): 119.9% | activity in hemic hypoxia (in words) ([11]; 10 to 100 mg/kg): little activity | effect on exploratory behaviour [12]: does not disturb the "exploratory" behaviour
